# Data taken from ChEMBL document CHEMBL1201862, “PubChem BioAssay data set” (2004).
#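 Where inhibition never reached the appropriate level, the endpoint shown equals the highest concentration tested. Otherwise, values were interpolated linearly from a five-concentration, 48-hour dose response in 96-well plates. GI50 = concentration required for 50% inhibition of growth.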 Active and inactive are the calls of the source. Cut-off read from the data, not from the text of the source: active = GI50 up to about 1.1 µM and inactive = higher.
# Legend:
# Experiment in all cases: NCI anticancer screen, dose series, 48 h
# [1] = system: 786-0
# [2] = system: A498
# [3] = system: A549
# [4] = system: CCRF-CEM
# [5] = system: HCT-116
# [6] = system: HCT-15
# [7] = system: HOP-62
# [8] = system: LOX IMVI
# [9] = system: OVCAR-5
# [10] = system: PC-3
# [11] = system: SF-268
# [12] = system: SF-295
# [13] = system: SF-539
# [14] = system: SK-MEL-28
# [15] = system: SNB-75
# [16] = system: SW-620
# [17] = system: EKVX
# [18] = system: HCC 2998
# [19] = system: OVCAR-4
# [20] = system: MCF7
SMILES,GI50 [1],GI50 [2],GI50 [3],GI50 [4],GI50 [5],GI50 [6] [µM],GI50 [7],GI50 [8],GI50 [9],GI50 [10],GI50 [11],GI50 [12],GI50 [13],GI50 [14],GI50 [15],GI50 [16],GI50 [17],GI50 [18],GI50 [19],GI50 [20]
O=C1NN=C(c2c[nH]c3ccccc23)CC1NCc1ccccc1 (stereo unspecified),> 100 µM (inactive),> 100 µM (inactive),> 100 µM (inactive),> 100 µM (inactive),> 100 µM (inactive),> 100,> 100 µM (inactive),> 100 µM (inactive),> 100 µM (inactive),> 100 µM (inactive),> 100 µM (inactive),> 100 µM (inactive),> 100 µM (inactive),> 100 µM (inactive),> 100 µM (inactive),> 100 µM (inactive),–,–,–,–
CC[C@](C)(O)C(=O)O[C@H]1C(=O)O[C@@H]2C[C@H]3C(C)=CC(=O)[C@@H](O)[C@]3(C)[C@H]3[C@@]4(O)OC[C@]32[C@@H]1[C@@H](C)[C@H]4O [GLAUCARUBINONE],0.146 µM (active),0.32 µM (active),1.21 µM (inactive),0.05 µM (active),0.05 µM (active),0.0885,0.0794 µM (active),0.0354 µM (active),0.658 µM (active),0.458 µM (active),0.0661 µM (active),0.116 µM (active),0.05 µM (active),0.05 µM (active),0.0585 µM (active),0.075 µM (active),0.0545 µM (active),0.0679 µM (active),0.321 µM (active),–
Cc1ccc(/N=N/c2c(O)c(C(=O)O)cc3ccccc23)c(S(=O)(=O)O)c1,> 100 µM (inactive),> 100 µM (inactive),> 100 µM (inactive),> 100 µM (inactive),> 100 µM (inactive),> 100,> 100 µM (inactive),> 100 µM (inactive),> 100 µM (inactive),> 100 µM (inactive),> 100 µM (inactive),> 100 µM (inactive),–,> 100 µM (inactive),> 100 µM (inactive),> 100 µM (inactive),> 100 µM (inactive),–,> 100 µM (inactive),–
CN1CCN(c2cc3c(cc2F)c(=O)c(C(=O)O)cn3C2CC2)CC1CC#N (stereo unspecified),> 100 µM (inactive),> 100 µM (inactive),> 100 µM (inactive),> 100 µM (inactive),> 100 µM (inactive),> 100,> 100 µM (inactive),> 100 µM (inactive),> 100 µM (inactive),–,> 100 µM (inactive),> 100 µM (inactive),> 100 µM (inactive),> 100 µM (inactive),> 100 µM (inactive),> 100 µM (inactive),> 100 µM (inactive),> 100 µM (inactive),> 100 µM (inactive),> 100 µM (inactive)
COc1cc(OC)cc(-c2cc(=O)c3c(OC)c(OC)c(OC)c(OC)c3o2)c1,29.9 µM (inactive),23 µM (inactive),33.8 µM (inactive),20.5 µM (inactive),31.3 µM (inactive),33.3,32.6 µM (inactive),35.5 µM (inactive),47.3 µM (inactive),–,29.6 µM (inactive),23 µM (inactive),80 µM (inactive),40.3 µM (inactive),20 µM (inactive),35.7 µM (inactive),29.2 µM (inactive),31.7 µM (inactive),22.9 µM (inactive),63.7 µM (inactive)
CCC1OC2(C)CC(C#N)(C#N)C1(C#N)C(=N)O2 (stereo unspecified),> 100 µM (inactive),> 100 µM (inactive),> 100 µM (inactive),> 100 µM (inactive),> 100 µM (inactive),–,–,> 100 µM (inactive),> 100 µM (inactive),> 100 µM (inactive),> 100 µM (inactive),> 100 µM (inactive),> 100 µM (inactive),> 100 µM (inactive),> 100 µM (inactive),> 100 µM (inactive),> 100 µM (inactive),–,–,> 100 µM (inactive)
O=c1n(CCCN2CCN(c3cccc(Cl)c3)CC2)nc2n1-c1ccc3ccccc3c1SC2,> 100 µM (inactive),> 100 µM (inactive),> 100 µM (inactive),> 100 µM (inactive),9.46 µM (inactive),> 100,> 100 µM (inactive),> 100 µM (inactive),> 100 µM (inactive),> 100 µM (inactive),–,> 100 µM (inactive),> 100 µM (inactive),> 100 µM (inactive),> 100 µM (inactive),> 100 µM (inactive),99.3 µM (inactive),–,> 100 µM (inactive),> 100 µM (inactive)
Cc1oc2nc(N(C)C)nc(Cl)c2c1C,> 100 µM (inactive),29.9 µM (inactive),> 100 µM (inactive),> 100 µM (inactive),> 100 µM (inactive),> 100,> 100 µM (inactive),–,> 100 µM (inactive),> 100 µM (inactive),> 100 µM (inactive),> 100 µM (inactive),> 100 µM (inactive),> 100 µM (inactive),3.89 µM (inactive),> 100 µM (inactive),34.8 µM (inactive),> 100 µM (inactive),32.1 µM (inactive),–
CC1OC(OC2C(O[C@@H]3C[C@@H]4CC[C@@H]5[C@H](CC[C@]6(C)[C@@H]7[C@H](C[C@@H]56)O[C@]5(CC[C@@H](C)CO5)[C@H]7C)[C@@]4(C)C[C@H]3O)OC(CO)C(OC3OC(CO)C(O)C(O)C3O)C2O)C(O)C(O)C1O (stereo partly specified),1.73 µM (inactive),1.71 µM (inactive),1.57 µM (inactive),1.92 µM (inactive),3.78 µM (inactive),2.17,1.83 µM (inactive),–,1.59 µM (inactive),1.52 µM (inactive),1.84 µM (inactive),1.56 µM (inactive),1.77 µM (inactive),1.75 µM (inactive),2.25 µM (inactive),1.67 µM (inactive),1.51 µM (inactive),–,2.06 µM (inactive),1.85 µM (inactive)
CCN(CC)C(=O)c1cc([N+](=O)[O-])c(=O)n2c1[nH]c1ccccc12,> 100 µM (inactive),–,> 100 µM (inactive),> 100 µM (inactive),> 100 µM (inactive),–,> 100 µM (inactive),> 100 µM (inactive),> 100 µM (inactive),> 100 µM (inactive),> 100 µM (inactive),> 100 µM (inactive),> 100 µM (inactive),> 100 µM (inactive),> 100 µM (inactive),> 100 µM (inactive),> 100 µM (inactive),> 100 µM (inactive),> 100 µM (inactive),–
Cc1cc(C)c(N[S+]([O-])c2cccc(C(F)(F)F)c2)c(C)c1 (stereo unspecified),> 100 µM (inactive),> 100 µM (inactive),> 100 µM (inactive),> 100 µM (inactive),–,> 100,> 100 µM (inactive),–,> 100 µM (inactive),> 100 µM (inactive),> 100 µM (inactive),> 100 µM (inactive),> 100 µM (inactive),> 100 µM (inactive),–,> 100 µM (inactive),–,–,–,> 100 µM (inactive)
CC(C)(C)OC(=O)NCCC(N)=S,> 100 µM (inactive),> 100 µM (inactive),> 100 µM (inactive),57.5 µM (inactive),> 100 µM (inactive),> 100,> 100 µM (inactive),–,> 100 µM (inactive),> 100 µM (inactive),> 100 µM (inactive),> 100 µM (inactive),> 100 µM (inactive),> 100 µM (inactive),> 100 µM (inactive),> 100 µM (inactive),> 100 µM (inactive),–,–,> 100 µM (inactive)
COc1ccc(O)c(/C=N/CCC/N=C/c2cc(OC)ccc2O)c1,33.7 µM (inactive),8.91 µM (inactive),70.8 µM (inactive),3.8 µM (inactive),40.8 µM (inactive),18.1,52.1 µM (inactive),–,38.3 µM (inactive),24.5 µM (inactive),–,18.1 µM (inactive),–,46.2 µM (inactive),18.3 µM (inactive),39 µM (inactive),20.2 µM (inactive),–,21.8 µM (inactive),20.9 µM (inactive)
CS(=O)(=O)CCC(N)P(=O)(O)O (stereo unspecified),> 100 µM (inactive),–,> 100 µM (inactive),> 100 µM (inactive),> 100 µM (inactive),> 100,> 100 µM (inactive),> 100 µM (inactive),> 100 µM (inactive),> 100 µM (inactive),> 100 µM (inactive),> 100 µM (inactive),–,> 100 µM (inactive),> 100 µM (inactive),> 100 µM (inactive),> 100 µM (inactive),–,> 100 µM (inactive),> 100 µM (inactive)
COc1ccc(C2N(c3ccc(F)cc3)C(=O)N3C(c4ccc(OC)cc4)N(c4ccc(F)cc4)C(=O)N23)cc1 (stereo unspecified),> 100 µM (inactive),> 100 µM (inactive),> 100 µM (inactive),> 100 µM (inactive),> 100 µM (inactive),> 100,> 100 µM (inactive),> 100 µM (inactive),> 100 µM (inactive),> 100 µM (inactive),> 100 µM (inactive),> 100 µM (inactive),> 100 µM (inactive),> 100 µM (inactive),> 100 µM (inactive),> 100 µM (inactive),> 100 µM (inactive),–,> 100 µM (inactive),–
O=C1CCCCC(=O)Nc2ccccc2N1,> 100 µM (inactive),> 100 µM (inactive),> 100 µM (inactive),> 100 µM (inactive),> 100 µM (inactive),> 100,> 100 µM (inactive),> 100 µM (inactive),> 100 µM (inactive),> 100 µM (inactive),> 100 µM (inactive),> 100 µM (inactive),> 100 µM (inactive),> 100 µM (inactive),–,> 100 µM (inactive),> 100 µM (inactive),–,> 100 µM (inactive),–
